Results published in article PMC5927774, “Isoxazol-5(2H)-one: a new scaffold for potent human neutrophil elastase (HNE) inhibitors” (Journal of Enzyme Inhibition and Medicinal Chemistry, 2017).

What was measured:
[1] = biological target: T1, HNE (human neutrophil elastase) (Homo sapiens, UniProt P08246); assay: HNE inhibition assay (fluorogenic substrate); assay type: biochemical; details: for IC50: Table 1, mean ± SD of three independent experiments, NA = no inhibitory activity at the highest concentration tested (50 μM)
T1 construct: purchased Calbiochem, La Jolla, CA
T1 sequence (P08246 30-267): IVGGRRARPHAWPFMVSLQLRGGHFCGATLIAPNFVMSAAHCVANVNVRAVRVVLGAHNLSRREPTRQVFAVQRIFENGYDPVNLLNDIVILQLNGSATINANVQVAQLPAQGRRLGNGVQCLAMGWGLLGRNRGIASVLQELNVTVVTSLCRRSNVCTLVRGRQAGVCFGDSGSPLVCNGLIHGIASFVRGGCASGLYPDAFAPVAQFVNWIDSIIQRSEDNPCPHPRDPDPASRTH
Protocol: HNE inhibition assay. Compounds were dissolved in 100% DMSO at 5 mM stock concentrations. The final concentration of DMSO in the reactions was 1%, and this level of DMSO had no effect on enzyme activity. The HNE inhibition assay was performed in black flat-bottom 96-well microtiter plates. Briefly, a buffer solution containing 200 mM Tris–HCl, pH 7.5, 0.01% bovine serum albumin, 0.05% Tween-20, and 20 mU/ml of HNE (Calbiochem, La Jolla, CA) was added to wells containing different concentrations of each compound. The reaction was initiated by addition of 25 μM elastase substrate (N-methylsuccinyl-Ala-Ala-Pro-Val-7-amino-4-methylcoumarin, Calbiochem) in a final reaction volume of 100 μL/well. Kinetic measurements were obtained every 30 s for 10 min at 25 °C using a Fluoroskan Ascent FL fluorescence microplate reader (Thermo Electron, Waltham, MA) with excitation and emission wavelengths at 355 and 460 nm, respectively. For all compounds tested, the concentration of inhibitor that caused 50% inhibition of the enzymatic reaction (IC50) was calculated by plotting % inhibition versus logarithm of inhibitor concentration (at least six points). The data are presented as the mean values of at least three independent experiments with relative standard deviations of <15%.

HNE [2] = biological target: T2, HNE (Homo sapiens, UniProt P08246); assay: Compound hydrolysis in the presence of HNE; assay type: biochemical; details: for half-life: human, phosphate buffer supplemented with HNE (400 mU/ml), pH 7.3, 400 mU/ml HNE, read-out: t1/2 (h) In the presence HNE (converted)
T2 construct: purchased Calbiochem, La Jolla, CA
T2 sequence (P08246 30-267): T1 sequence (P08246 30-267)
Protocol: (§1) Spontaneous hydrolysis of selected derivatives was evaluated at 25 °C in 0.05 M phosphate buffer, pH 7.3. Kinetics of hydrolysis were monitored by measuring changes in absorbance spectra over time using a SpectraMax Plus microplate spectrophotometer (Molecular Devices, Sunnyvale, CA). Absorbance (At) at the characteristic absorption maxima of each compound was measured at the indicated times until no further absorbance decreases occurred (A∞)[30]. Using these measurements, we created semilogarithmic plots of log(At – A∞) versus time, and k′ values were determined from the slopes of these plots. Half-conversion times were calculated using t1/2=0.693/k′, as described previously.
In the presence of 400 mU/ml HNE, the hydrolysis was 2.2–4.8-fold higher than for spontaneous hydrolysis (i.e. without HNE) (Table 3).
Figure 5. Analysis of compound 2i spontaneous hydrolysis. Compound 2i (80 μM) was incubated in 0.05 M phosphate buffer ([…], 25 °C) supplemented with […] HNE, as indicated. Spontaneous hydrolysis was monitored by measuring changes in absorbance at 275 nm (absorption maximum of compound 2i) over time. The data are presented as the mean ± SD of triplicate samples from one experiment, which is representative of two independent experiments.

[3] = Spontaneous hydrolysis (chemical stability) in aqueous buffer; assay type: physicochemical; details: 25 °C, 0.05 M phosphate buffer, pH 7.3; read-out: t1/2 (h) Spontaneous hydrolysis (converted)
Protocol: as §1

HNE [4] = biological target: T2, HNE; assay: Reversibility of the HNE-inhibitor complex over time (kinetic curves); assay type: biochemical; details: compound at 5 μM
Protocol: (§2) However, inhibition by compound 2s was reversed after 10 min. […] To better understand the mechanism of action of this isoxazolone HNE inhibitor, we performed additional kinetic experiments.
Figure 6. Evaluation of HNE inhibition by selected isoxazolone derivatives. HNE was incubated with the indicated compounds at 5 μM concentrations, and kinetic curves monitoring substrate cleavage catalysed by HNE are shown. Representative curves are from three independent experiments.

HNE [5] = biological target: T2, HNE; assay: Lineweaver-Burk analysis of HNE inhibition; assay type: biochemical; details: double-reciprocal Lineweaver-Burk plot
Protocol: as §2
Figure 7. Kinetics of HNE inhibition by compound 2o. Representative double-reciprocal Lineweaver–Burk plot from three independent experiments.

IC50 [1] | half-life (HNE [2]) | half-life [3] | SMILES | further results
130 ± 25 nM |  |  | CCc1c(C)n(C(=O)C2CC2)oc1=O [Compound 2c, 2-(Cyclopropanecarbonyl)-4-ethyl-3-methylisoxazol-5(2H)-one] | 
2200 ± 280 nM |  |  | CCc1c(C)c(=O)on1C(=O)C1CC1 [Compound 2e, 2-(Cyclopropanecarbonyl)-3-ethyl-4-methylisoxazol-5(2H)-one] | 
43 ± 11 nM | 2.1 h | 5.3 h | CCc1cc(=O)on1C(=O)c1cccc(C)c1 [Compound 2j, 3-Ethyl-2-(3-methylbenzoyl)isoxazol-5(2H)-one] | melting point: 81 to 84 °C; fold higher inhibitory activity with respect to the corresponding 4-methyl derivative ([1]; 2i vs 2e, 2j vs 2f): 42 fold; time during which HNE inhibition was maximal (HNE [4]): 30 min
42 ± 11 nM | 2.6 h | 6.2 h | Cc1cccc(C(=O)n2oc(=O)cc2C(C)C)c1 [Compound 2n, 3-Isopropyl-2-(3-methylbenzoyl)isoxazol-5(2H)-one] | time during which HNE inhibition was maximal (HNE [4]): 30 min
20 ± 7 nM | 3.4 h | 8.9 h | Cc1ccc(C(=O)n2oc(=O)cc2C(C)C)cc1 [Compound 2o, 3-Isopropyl-2-(4-methylbenzoyl)isoxazol-5(2H)-one] | mechanism of HNE inhibition (in words) (HNE [5]): competitive HNE inhibitor; melting point: 77 to 79 °C; time after which HNE inhibition was reversed (HNE [4]): 2 h
18200 ± 2500 nM |  |  | CC(C)c1cc(=O)on1C(=O)c1ccc(C#N)cc1 [Compound 2q, 4-(3-Isopropyl-5-oxo-2,5-dihydroisoxazole-2-carbonyl)benzonitrile] | melting point: 113 to 115 °C
1200 ± 220 nM |  |  | CC(C)c1cc(=O)on1C(=O)c1cccc(C(F)(F)F)c1 [Compound 2r, 3-Isopropyl-2-(3-(trifluoromethyl)benzoyl)isoxazol-5(2H)-one] | 

More lines, now with the values behind:

SMILES | IC50 [1] | half-life (HNE [2]) | half-life [3] | further results
Cc1c(C)n(C(=O)C2CC2)oc1=O [Compound 2a, 2-(Cyclopropanecarbonyl)-3,4-dimethylisoxazol-5(2H)-one] | 120 ± 23 nM |  |  | 
Cc1cccc(C(=O)n2oc(=O)c(C)c2C)c1 [Compound 2b, 3,4-Dimethyl-2-(3-methylbenzoyl)isoxazol-5(2H)-one] | 10900 ± 1200 nM |  |  | 
CCc1c(C)n(C(=O)c2cccc(C)c2)oc1=O [Compound 2d, 4-Ethyl-3-methyl-2-(3-methylbenzoyl)isoxazol-5(2H)-one] | 94 ± 23 nM | 3.5 h | 7.7 h | time during which HNE inhibition was maximal (HNE [4]): 30 min
CCc1c(C)c(=O)on1C(=O)c1cccc(C)c1 [Compound 2f, 3-Ethyl-4-methyl-2-(3-methylbenzoyl)isoxazol-5(2H)-one] | 1800 ± 320 nM |  |  | 
CCOC(=O)c1c(C)c(=O)on1C(=O)C1CC1 [Compound 2g, Ethyl 2-(cyclopropanecarbonyl)-4-methyl-5-oxo-2,5-dihydroisoxazole-3-carboxylate] | 440 ± 140 nM |  |  | 
CCOC(=O)c1c(C)c(=O)on1C(=O)c1cccc(C)c1 [Compound 2h, Ethyl 4-methyl-2-(3-methylbenzoyl)-5-oxo-2,5-dihydroisoxazole-3-carboxylate] | 39700 ± 5100 nM |  |  | 
CCc1cc(=O)on1C(=O)C1CC1 [Compound 2i, 2-(Cyclopropanecarbonyl)-3-ethylisoxazol-5(2H)-one] | 96 ± 22 nM | 4 h | 19.3 h | hydrolysis with increasing HNE concentration (in words) (HNE [2]; 80 μM compound, 0.05 M phosphate buffer pH 7.5, 25 °C, 0, 50, 200, 400 μg/ml HNE, absorbance at 275 nm): dose-dependent hydrolysis; time during which HNE inhibition was maximal (HNE [4]): 30 min
CCC(=O)n1oc(=O)cc1C(C)C [Compound 2k, 3-Isopropyl-2-propionylisoxazol-5(2H)-one] | 1100 ± 140 nM |  |  | melting point: 92 to 95 °C
CC(C)c1cc(=O)on1C(=O)C1CC1 [Compound 2l, 2-(Cyclopropanecarbonyl)-3-isopropylisoxazol-5(2H)-one] | 34 ± 9 nM | 4.3 h | 19.3 h | time during which HNE inhibition was maximal (HNE [4]): 30 min
CC(C)c1cc(=O)on1C(=O)C1CCCC1 [Compound 2m, 2-(Cyclopentanecarbonyl)-3-isopropylisoxazol-5(2H)-one] | 560 ± 150 nM |  |  | 
CC(C)c1cc(=O)on1C(=O)c1cccc(C#N)c1 [Compound 2p, 3-(3-Isopropyl-5-oxo-2,5-dihydroisoxazole-2-carbonyl)benzonitrile] | 6500 ± 1700 nM |  |  | 
CC(C)c1cc(=O)on1C(=O)c1ccc(C(F)(F)F)cc1 [Compound 2s, 3-Isopropyl-2-(4-(trifluoromethyl)benzoyl)isoxazol-5(2H)-one] | 34 ± 12 nM | 0.9 h | 3.1 h | time after which HNE inhibition was reversed (HNE [4]): 0.167 h
CC(C)c1cc(=S)on1C(=O)C1CC1 [Compound 3a, Cyclopropyl-(3-isopropyl-5-thioxoisoxazol-2(5H)-yl)methanone] | 2100 ± 310 nM |  |  | 
Cc1cccc(C(=O)n2oc(=S)cc2C(C)C)c1 [Compound 3b, (3-Isopropyl-5-thioxoisoxazol-2(5H)-yl)-(m-tolyl)methanone] |  |  |  | HNE inhibitory activity (in words) [1]: inactivity
Cc1cccc(Cn2oc(=O)c(C)c2C)c1 [Compound 4a, 3,4-Dimethyl-2-(3-methylbenzyl)isoxazol-5(2H)-one] |  |  |  | melting point: 80 to 83 °C
